System: Plasmodium berghei
Experiment: Luciferase/luciferin-expressing antifolate-resistant parasites were used to infect a culture of HepG2 cells that were pre-incubated with compounds. Infected hepatocytes emit light due to the luciferase reaction. Assay results are presented as the percent inhibition of light emission compared to control. […]
Type: functional
Details: sporozoite; for IC90: read-out: LUCIFERASE INFECTION ASSAY - IC90

SMILES	IC90 [µM]	other results
CC(=O)c1ccc(-c2ccc(C(=O)N3CCCc4ccccc43)o2)cc1	0.942	IC50 (PBLUC_HILL_SLOPE 1.77, PBLUC_R_SQUARED 0.773, read-out: LUCIFERASE INFECTION ASSAY - IC50): 0.272 µM
CCOC(=O)c1c(C)[nH]c(C(=O)CSc2nnc(C3CC3)n2N)c1C	0.847	IC50 (PBLUC_HILL_SLOPE 1.71, PBLUC_R_SQUARED 0.964, read-out: LUCIFERASE INFECTION ASSAY - IC50): 0.235 µM
CC(C)(C)Nc1ncnc2sc(-c3ccccc3)cc12	> 10	IC50 (PBLUC_HILL_SLOPE 1.75, PBLUC_R_SQUARED 0.697, read-out: LUCIFERASE INFECTION ASSAY - IC50): 4.97 µM
Cc1ccc(S(=O)(=O)Nc2cc(SCC(=O)O)c(O)c3ccccc23)cc1	> 10	IC50 (PBLUC_HILL_SLOPE 1.74, PBLUC_R_SQUARED 0.143, read-out: LUCIFERASE INFECTION ASSAY - IC50): > 10 µM
CCN(Cc1ccccc1)S(=O)(=O)c1ccc2c(c1)CCCN2C(C)=O	> 10	IC50 (PBLUC_HILL_SLOPE 1.76, PBLUC_R_SQUARED 0.382, read-out: LUCIFERASE INFECTION ASSAY - IC50): 8.69 µM
Cc1[nH]c2ccccc2c1C(=O)C(C)Sc1ccc2c(c1)OCCCO2 (stereo not given)	> 10	IC50 (PBLUC_HILL_SLOPE 1.73, PBLUC_R_SQUARED 0.284, read-out: LUCIFERASE INFECTION ASSAY - IC50): 3.18 µM
COc1cc(/C=N/NC(=O)c2ccccc2NS(=O)(=O)c2cccs2)ccc1OCCC(C)C	1.06	IC50 (PBLUC_HILL_SLOPE 1.78, PBLUC_R_SQUARED 0.852, read-out: LUCIFERASE INFECTION ASSAY - IC50): 0.307 µM
Cc1sc2nc(-c3cccs3)nc(N3CCN(C(=O)c4ccccc4)CC3)c2c1C	> 10	IC50 (PBLUC_HILL_SLOPE 1.78, PBLUC_R_SQUARED 0.529, read-out: LUCIFERASE INFECTION ASSAY - IC50): 4.85 µM
O=C(c1ccccc1)C1CCN(C(=O)/C=C/c2cccc(Cl)c2Cl)CC1	> 10	IC50 (PBLUC_HILL_SLOPE 1.75, PBLUC_R_SQUARED 0.122, read-out: LUCIFERASE INFECTION ASSAY - IC50): > 10 µM
CN1CCC2(CC1)CC(Nc1ccc(C(F)(F)F)cc1[N+](=O)[O-])c1ccccc1O2 (stereo not given)	> 10	IC50 (PBLUC_HILL_SLOPE 1.75, PBLUC_R_SQUARED 0.131, read-out: LUCIFERASE INFECTION ASSAY - IC50): > 10 µM
N#C/C=C1\SCC(=O)N1CC(=O)c1ccc([N+](=O)[O-])cc1	> 10	IC50 (PBLUC_HILL_SLOPE 1.79, PBLUC_R_SQUARED 0.472, read-out: LUCIFERASE INFECTION ASSAY - IC50): 5.27 µM
FC(F)(F)c1nc(N2CCN(c3ccncc3)CC2)c2ccccc2n1	> 10	IC50 (PBLUC_HILL_SLOPE 1.73, PBLUC_R_SQUARED 0.515, read-out: LUCIFERASE INFECTION ASSAY - IC50): 4.07 µM
N#Cc1ccsc1NC(=O)CN1CCN(CC(=O)Nc2ccc(Cl)c(C(F)(F)F)c2)CC1	> 10	IC50 (PBLUC_HILL_SLOPE 1.73, PBLUC_R_SQUARED 0.28, read-out: LUCIFERASE INFECTION ASSAY - IC50): 5.03 µM
CC(NCc1ccc(N(C)CCO)cc1)c1ccc(-c2ccccc2)cc1 (stereo not given)	> 10	IC50 (PBLUC_HILL_SLOPE 1.73, PBLUC_R_SQUARED 0.432, read-out: LUCIFERASE INFECTION ASSAY - IC50): 8 µM
Cc1ccc(CSc2nnc(OC(=O)N(C)C)n2-c2cccc(Cl)c2)cc1	> 8.19	IC50 (PBLUC_HILL_SLOPE 1.76, PBLUC_R_SQUARED 0.153, read-out: LUCIFERASE INFECTION ASSAY - IC50): 6.97 µM
O=[N+]([O-])c1cc(/C=N/O)ccc1Oc1ccc(Cl)cc1	> 11.3	IC50 (PBLUC_HILL_SLOPE 1.72, PBLUC_R_SQUARED 0.416, read-out: LUCIFERASE INFECTION ASSAY - IC50): 6.18 µM
CS(=O)(=O)Nc1cccc(-c2cn3c(-c4ccc5c(c4)OCO5)cnc3cn2)c1	> 8.08	IC50 (PBLUC_HILL_SLOPE 1.71, PBLUC_R_SQUARED 0.507, read-out: LUCIFERASE INFECTION ASSAY - IC50): 6.08 µM
CCC1CCCCN1CC(O)COC(c1ccc(Cl)cc1)c1ccc(Cl)cc1 (stereo not given)	> 10	IC50 (PBLUC_HILL_SLOPE 1.73, PBLUC_R_SQUARED 0.487, read-out: LUCIFERASE INFECTION ASSAY - IC50): 5.6 µM
COc1ccc(-c2nc(-c3ccccc3)c(-c3ccccc3)[nH]2)cc1OCC(N)=O	> 10	IC50 (PBLUC_HILL_SLOPE 1.74, PBLUC_R_SQUARED 0.661, read-out: LUCIFERASE INFECTION ASSAY - IC50): 6.3 µM
Cc1[nH]ncc1CCCNc1nc(-c2ccsc2)nc2ccccc12	> 10	IC50 (PBLUC_HILL_SLOPE 1.72, 3.12, PBLUC_R_SQUARED 0.159, 0.360, read-out: LUCIFERASE INFECTION ASSAY - IC50): 5.35 µM

SMILES	IC90 [µM]	other results
Cc1sc2nc(-c3cccnc3)nc(NCCc3ccc(S(N)(=O)=O)cc3)c2c1C	> 10	IC50 (PBLUC_HILL_SLOPE 1.71, PBLUC_R_SQUARED 0.31, read-out: LUCIFERASE INFECTION ASSAY - IC50): 7.09 µM
O=C(Nc1ncccc1O)c1ccc(CN2C(=O)c3ccccc3S2(=O)=O)cc1	> 10	IC50 (PBLUC_HILL_SLOPE 1.72, 0.775, PBLUC_R_SQUARED 0.614, 0.500, read-out: LUCIFERASE INFECTION ASSAY - IC50): 4.22 µM
CCCc1nc2ccccc2n1CC(=O)N1N=C(c2ccc(Cl)cc2)CC1c1ccco1 (stereo not given)	> 10	IC50 (PBLUC_HILL_SLOPE 1.73, PBLUC_R_SQUARED 0.265, read-out: LUCIFERASE INFECTION ASSAY - IC50): > 10 µM
CC1CCN(C(=O)c2csc(-c3ccco3)n2)c2ccccc2S1 (stereo not given)	7.59	IC50 (PBLUC_HILL_SLOPE 1.74, PBLUC_R_SQUARED 0.579, read-out: LUCIFERASE INFECTION ASSAY - IC50): 2.14 µM
NC1=NC(=S)N=C(N)C1=C(CS(=O)(=O)c1ccccc1)c1ccccc1	> 8.58	IC50 (PBLUC_HILL_SLOPE 1.77, PBLUC_R_SQUARED 0.148, read-out: LUCIFERASE INFECTION ASSAY - IC50): > 8.58 µM
CC(C)(C)c1ccc(COc2cccnc2N=CNO)cc1	> 11	IC50 (PBLUC_HILL_SLOPE 1.74, PBLUC_R_SQUARED 0.362, read-out: LUCIFERASE INFECTION ASSAY - IC50): 6.6 µM
CCOC(=O)c1sc2nc(C)nc(N(C)Cc3ccccc3)c2c1C	> 10	IC50 (PBLUC_HILL_SLOPE 1.75, PBLUC_R_SQUARED 0.422, read-out: LUCIFERASE INFECTION ASSAY - IC50): 7.96 µM
Cc1cccc(/C=C2\CC(C#N)(c3ccccc3)C/C(=C\c3cccc(C)c3)C2=O)c1 (stereo not given)	> 10	IC50 (PBLUC_HILL_SLOPE 1.76, PBLUC_R_SQUARED 0.46, read-out: LUCIFERASE INFECTION ASSAY - IC50): 9.05 µM
COCCNc1cc(C(C)C)nc2c(-c3ccccc3)cnn12	> 10.6	IC50 (PBLUC_HILL_SLOPE 1.73, PBLUC_R_SQUARED 0.539, read-out: LUCIFERASE INFECTION ASSAY - IC50): 3.04 µM
O=C(Nc1ccccc1Nc1cc(-c2ccccc2)nn1-c1ccccc1)c1ccc([N+](=O)[O-])cc1	> 10	IC50 (PBLUC_HILL_SLOPE 1.78, PBLUC_R_SQUARED 0.355, read-out: LUCIFERASE INFECTION ASSAY - IC50): 8.66 µM
CN(C)c1ccc(NC(=O)C2(C)CCCCN2C)cc1 (stereo not given)	> 12	IC50 (PBLUC_HILL_SLOPE 1.77, PBLUC_R_SQUARED 0.752, read-out: LUCIFERASE INFECTION ASSAY - IC50): 6.68 µM
Cc1nn(CC(=O)NNC(=O)CC23CC4CC(CC(C4)C2)C3)c(=O)c2ccccc12	6.96	IC50 (PBLUC_HILL_SLOPE 1.76, PBLUC_R_SQUARED 0.72, read-out: LUCIFERASE INFECTION ASSAY - IC50): 2 µM
Cn1cc(-c2cnc3ccc(Cc4ccc(F)cc4)nn23)cn1	> 10	IC50 (PBLUC_HILL_SLOPE 1.72, PBLUC_R_SQUARED 0.782, read-out: LUCIFERASE INFECTION ASSAY - IC50): 4.99 µM
CC12CCC(C(=O)N3CCN(c4cccc(Cl)c4)CC3)(OC1=O)C2(C)C (stereo not given)	> 8.76	IC50 (PBLUC_HILL_SLOPE 1.72, PBLUC_R_SQUARED 0.0862, read-out: LUCIFERASE INFECTION ASSAY - IC50): > 8.76 µM
COc1cccc(C(=O)Nc2ccc3nc(-c4cc(OC)c(OC)c(OC)c4)nn3c2)c1	7.64	IC50 (PBLUC_HILL_SLOPE 1.78, PBLUC_R_SQUARED 0.523, read-out: LUCIFERASE INFECTION ASSAY - IC50): 2.22 µM
Cc1cnc(-c2nc(-c3ccccc3)c3n2CCN(Cc2ccc(C4CCCCO4)s2)C3)cn1 (stereo not given)	> 7	IC50 (PBLUC_HILL_SLOPE 1.74, PBLUC_R_SQUARED 0.822, read-out: LUCIFERASE INFECTION ASSAY - IC50): 3.61 µM
Cc1noc(C)c1C(=O)OCC(=O)c1cc(C)n(-c2ccccc2F)c1C	> 10	IC50 (PBLUC_HILL_SLOPE 1.73, PBLUC_R_SQUARED 0.622, read-out: LUCIFERASE INFECTION ASSAY - IC50): 4.2 µM
COc1ccc(C(CNC(=O)c2ccc(Oc3ccc(Cl)cc3[N+](=O)[O-])cc2)N2CCCC2)cc1 (stereo not given)	> 10	IC50 (PBLUC_HILL_SLOPE 1.72, PBLUC_R_SQUARED 0.19, read-out: LUCIFERASE INFECTION ASSAY - IC50): 6.08 µM
COc1ncccc1CNC(=O)C1=COCCO1	> 10	IC50 (PBLUC_HILL_SLOPE 1.77, PBLUC_R_SQUARED 0.251, read-out: LUCIFERASE INFECTION ASSAY - IC50): 5.83 µM
FC(F)(F)c1cccc(Nc2nnnc3ccccc23)c1	3.71	IC50 (PBLUC_HILL_SLOPE 1.72, PBLUC_R_SQUARED 0.746, read-out: LUCIFERASE INFECTION ASSAY - IC50): 1.03 µM
